Measured values taken from patent publication US20060252825A1, “Crystal forms of {[(2r)-7-(2,6-dichlorophenyl)-5-fluoro-2,3-dihydro-1-benzofuran-2-yl]methyl}amine hydrochloride” (Wyeth, priority 2005, published 2006).
Where “and” joins values, the source holds several entries; their conditions need not be identical. Equal entries are not always repeated. Structures can show the parent of a compound that is named as a salt.

Columns and labels:
Type in all cases: physicochemical
[1] = Assessment of stability in water (slurry at 25° C., form identified by XRPD); conditions: slurried in water at 25° C.; for Form after 2 days / Form after 4 days: Table A; for Form after 2 days / Form after 4 days / Stability in water (overall summary): hydrochloride; for Stability in water (overall summary): summary of Tables A-D
Protocol: Form I, Form II or a mixture thereof was slurried in water at 25° C. to assess stability. […] XRPD was used to identify crystalline form.

[2] = Solubility in water, gravimetric method
Protocol: Solubility was measured using the gravimetric method by separately suspending Form I and Form II in water with stirring at room temperature for 6 hours.

[3] = Conversion of Form I to Form II by slurrying in water at 25° C. (XRPD); conditions: slurried in water at 25° C. with stirring
Protocol: Form I was slurried in water for 1 day and for 5 days at 25° C. with stirring.

[4] = Conversion of Form II to Form I by slurrying in t-butylmethyl ether (XRPD); conditions: slurried in t-butylmethyl ether for 4 days at room temperature
Text: Form II was slurried in t-butylmethyl ether for 4 days at room temperature. The resulting solid was characterized by XRPD as Form I.

In the case of NC[C@H]1Cc2cc(F)cc(-c3c(Cl)cccc3Cl)c2O1 [50:50 I:II, {[(2R)-7-(2,6-dichlorophenyl)-5-fluoro-2,3-dihydro-1-benzofuran-2-yl]methyl}amine hydrochloride], the “Form after 2 days” value ([1]; XRPD) was “trace I”.

For NC[C@H]1Cc2cc(F)cc(-c3c(Cl)cccc3Cl)c2O1 [Form I, {[(2R)-7-(2,6-dichlorophenyl)-5-fluoro-2,3-dihydro-1-benzofuran-2-yl]methyl}amine hydrochloride], the solubility at 6 h ([2]; water, thermodynamic from solid, suspended in water with stirring at room temperature for 6 hours, gravimetric) was 67 mg/mL, the “Form after 2 days” value ([1]; XRPD) was “I, trace II” and the “Form after 4 days” value ([1]; XRPD) was “Increased amount of II”. The “Form after 3 days” value ([1]; Table C, XRPD) was “mainly II, some I”, the “Stability in water (overall summary)” value [1] was “converted to Form II under most of the conditions tested” and the “Crystalline form after 1 day” value ([3]; 1 day) was “substantial conversion of the solid from Form I to Form II”. For the same compound, the “Crystalline form after 5 days” value ([3]; 5 days) was “no detectable amount of Form I”.

With NC[C@H]1Cc2cc(F)cc(-c3c(Cl)cccc3Cl)c2O1 [Form II, {[(2R)-7-(2,6-dichlorophenyl)-5-fluoro-2,3-dihydro-1-benzofuran-2-yl]methyl}amine hydrochloride] the “Relative thermodynamic stability based on solubility data” value ([2]; inferred from water solubility of Forms I and II, hydrochloride) was “thermodynamically more stable in water than Form I”, the Solubility-Water ([2]; suspended in water with stirring at room temperature for 6 hours, gravimetric, hydrochloride) was 51 mg/mL and 50 mg/mL and the “Stability in water (overall summary)” value [1] was “stable in water”. The Resulting solid form [4] was “Form I”.

In the case of NC[C@H]1Cc2cc(F)cc(-c3c(Cl)cccc3Cl)c2O1 [I seeded with II, {[(2R)-7-(2,6-dichlorophenyl)-5-fluoro-2,3-dihydro-1-benzofuran-2-yl]methyl}amine hydrochloride], the “Form after 2 days” value ([1]; XRPD) was “increased amount of II” and the “Form after 4 days” value ([1]; XRPD) was “increased amount of II”.
